Assay results reported in patent publication US10143686B2, “Oxidosqualene cyclase as a protein target for anticancer therapeutics” (The Curators of the University of Missouri, priority 2010, dated 2018).
Where a name gives a salt, the structure may show the parent alone. Read-outs that look alike come from different tables or passages of the source.

Key:
Type in all cases: cell-based
[1] = system: MCF-7 breast cancer cells; test: SRB cell viability assay, MCF-7; settings: Homo sapiens, MCF7, MCF-7, Breast (ER+ PR+)
Protocol: (§1) The effect of OSC inhibition was evaluated in additional cancer cell lines as well. Cancer cell lines may be purchased from ATCC (Manassas, Va.). The SRB assay has been employed for determination of the inhibitory effects of RO 48-8071 on growth of different cancer cells. Cells were seeded into 96-well plates and incubated overnight at 37° C. with 5% CO2. The culture medium was removed after 24 hours, and cells were washed with DMEM/F12 medium and then treated with various concentrations of RO 48-8071 in 5% FBS culture medium for 24 and 48 hours. Surviving or adherent cells were fixed in situ by withdrawing the growth medium, adding 100 μl PBS and 100 μl 50% trichloroacetic acid and then incubating at 4° C. for one hour. Cells were washed with ice-cold water, dried at room temperature (RT), and then stained with 50 μl 4% SRB for eight minutes at RT. Unbound dye was removed by washing with cold 1% acetic acid for five times, and plates were dried at RT. Bound stain was solubilized with 150 μl 10 mM Tris buffer and absorbance of samples was read at 520 nm with a SpecTRA MAX 190 microplate reader (Molecular Devices, Sunnyvale, Calif.). Six wells were used for each concentration, and each experiment was performed two to three times.
Effect of RO 48-8071 on breast cancer cell line MCF-7 viability. […]

[2] = system: ZR-75 breast cancer cells; test: SRB cell viability assay, ZR-75; settings: ZR75, ZR-75, Breast (ER+ PR+)
Protocol: as §1
Effect of RO 48-8071 on estrogen, progesterone, and HER-2/neu receptors positive breast cancer cell line HCC-1428 and ZR-75 viability. […]

[3] = system: MDA-231 breast cancer cells; test: SRB cell viability assay, MDA-231; settings: Homo sapiens, MDA-MB-231, MDA-231, Breast (triple negative)
Protocol: as §1
Effect of RO 48-8071 on estrogen, progesterone, and HER-2/neu receptors negative breast cancer cell line MDA-231 and BT-20 viability. […]

DLD-1 colon cancer cells = test: SRB cell viability assay, DLD-1; settings: Homo sapiens
Protocol: as §1
Effect of RO 48-8071 on colon cancer cell line DLD-1 viability. […] The culture mediums employed 10% FBS RPMI-1640 for culture and 5% FBS RPMI-1640 for treatment.

[4] = system: OV-CAR-3 ovarian cancer cells; test: SRB cell viability assay, OV-CAR-3; settings: Homo sapiens, OVCAR-3, OV-CAR-3, Ovary
Protocol: as §1
Effect of RO 48-8071 on ovarian cancer cell line OVCAR-3 viability. […]

[5] = system: SK-OV-3 ovarian cancer cells; test: SRB cell viability assay, SK-OV-3; settings: Homo sapiens, SK-OV-3, Ovary
Protocol: as §1
Effect of RO 48-8071 on ovarian cancer cell line SK-OV-3 viability. […]

[6] = system: Capan-1 pancreatic cancer cells; test: SRB cell viability assay, Capan-1; settings: Homo sapiens, Capan-1, Pancreas
Protocol: as §1
Effect of RO 48-8071 on pancreatic cancer cell line Capan-1 viability. […] The culture mediums employed 20% FBS IMDM for culture and 10% FBS IMDM for treatment.

[7] = system: BxPC-3 pancreatic cancer cells; test: SRB cell viability assay, BxPC-3; settings: Homo sapiens, BxPC-3, Pancreas
Protocol: as §1
Effect of RO 48-8071 on pancreatic cancer cell line BxPC-3 viability. […]

[8] = 24 hours, read-out: IC50 (μM) (24 hours)
[9] = 48 hours, read-out: IC50 (μM) (48 hours)

`C=CCN(C)CCCCCCOc1ccc(C(=O)c2ccc(Br)cc2)c(F)c1` [Ro 48-8071, 4′-[6-(Allylmethylamino)hexyloxy]-4-bromo-2′-fluorobenzophenone fumarate] gave an IC50 [1, 8] of 12.3 ± 0.585 µM, an IC50 [1, 9] of 6.33 ± 0.344 µM and an IC50 [2, 8] of 11 ± 0.289 µM. The IC50 [2, 9] was 7.63 ± 0.304 µM, the IC50 [3, 8] was 15 ± 0.482 µM and the IC50 [3, 9] was 10.7 ± 0.276 µM. It also gave an IC50 (DLD-1 colon cancer cells; [8]) of 11.5 ± 0.243 µM, an IC50 (DLD-1 colon cancer cells; [9]) of 6.92 ± 0.41 µM and an IC50 [4, 8] of 20.5 ± 0.325 µM. The IC50 [4, 9] was 11.3 ± 0.33 µM, the IC50 [5, 8] was 18.3 ± 0.639 µM and the IC50 [5, 9] was 12.7 ± 0.521 µM. For the same molecule, the IC50 [6, 8] was 18.6 ± 1.62 µM, the IC50 [6, 9] was 13.7 ± 0.168 µM and the IC50 [7, 8] was 11.4 ± 0.621 µM. For the same molecule, the IC50 [7, 9] was 7.11 ± 0.102 µM.
